≈ marks a conversion by molar mass, not a printed value. Like-named read-outs stand apart in the source and are kept apart here. Bridge positions count the residues as written; N and C are the ends. Ends that are not written are not given here. Peptide text beside a SMILES is read from it.
Tests used:
Format in all cases: cell-based
[1] = tested on: Escherichia coli: ATCC 9723H
Experimental: (§1) Microtiter broth dilution assays. HP2, HP3, and HP5 peptides are comprised of novel sequences that have not yet been described in the AMP literature. A common method for establishing antimicrobial activity of peptides is to perform microtiter broth assays. Microtiter broth dilution methods were implemented for determination of the minimum inhibitory concentration (MIC) and minimum bactericidal concentration (MBC). HP3 and HP5 were tested in addition to Ranatuerin-1/HP4 peptide as a positive control. HP2 could not be tested because multiple peptide synthesis attempts failed. The human cathelicidin, LL-37^30 was used as an additional positive control, and an unrelated similarly sized cationic peptide from the T. pallidum protein Tp0751 was used as a negative control. The potential AMPs were tested against bacteria representative of all three types of known cell envelope (Gram-positive, negative, and the complex and unique mycobacterial cell wall/envelope), given that a major mechanism used by AMPs is cell wall/membrane targeting.
(§2) Microtiter broth dilution assays. To test for antimicrobial activity, HP3, HP4/Ranatuerin-1, and HP5, peptides were synthesized by GenScript (Piscataway, New Jersey, USA). HP2 was not tested because the service provider was unable to synthesize this peptide despite multiple attempts. An unrelated, similarly-sized peptide from the Treponema pallidum protein Tp0751^55 was used as a negative control and the human cathelicidin, LL-37^30, was included as a positive control. Peptides were dissolved in filter-sterilized ultrapure water and tested for sterility by plating on non-selective agar plates followed by a 48 h incubation at 37° C. Two-fold serial dilutions of each peptide were prepared to obtain a series corresponding to ten times the required testing concentrations (2560, 1280, 640, 320, 160, 80, 40, 20, 10, and 5 μg/mL)^29.
(§3) Microtiter broth dilution methods were implemented for determination of the minimum inhibitory concentration (MIC) and minimum bactericidal concentration (MBC) of the four putative AMPs and the negative control peptide using procedures adapted from the R.E.W. Hancock Laboratory for cationic AMPs^29 and the CLSI methods for dilution antimicrobial susceptibility tests^56.
(§4) To assess antimicrobial activity across a diverse range of bacterial species, colonies were cultured overnight on Mueller Hinton agar plates (MHA; +5% sheep blood for S. pyogenes)^56 from frozen glycerol stock. Bacteria tested include Gram-negative rods (Escherichia coli: ATCC 9723H; Pseudomonas aeruginosa: ATCC 10148), Gram-positive cocci (Staphylococcus aureus: ATCC 6538P; Streptococcus pyogenes: unknown strain, hospital isolate), and Mycobacterium smegmatis (MC^2155; classified as neither Gram-positive nor Gram-negative). Bacterial suspensions were prepared by placing 3-5 morphologically similar colonies from the grown plate into sterile glass culture tubes containing 2 mL of Mueller Hinton Broth (MHB; +5% lysed horse blood for S. pyogenes) 56. Microbial inoculums from bacterial suspensions were prepared through a spectrophotometric adjustment of turbidity to 0.08-0.1 at 600 nm to achieve a turbidity equivalent to that of a 0.5 McFarland standard (1-2×10^8 CFU/mL)^29. The standardized bacterial inoculums were then diluted in MHB to obtain final cell densities of approximately […].
(§5) Ninety-six-well microtiter plates (Fisher Cat. No. CS003790; Nepean, Ontario, Canada) were prepared with 100 μL of E. coli, P. aeruginosa, S. aureus, S. pyogenes, or M. smegmatis bacterial suspension (5×10^5 CFU/mL) dispensed into each well of columns 1 through 11. Eleven microliters of the 10×AMP dilution series for all four peptides were added to each well from column 1 (2560 μg/mL) to column 10 (5 μg/mL) in all plates. Column 11 functioned as a positive control for bacterial growth in the absence of AMPs. Column 12 in each plate contained 100 μL of MHB as a sterility control (+5% lysed horse blood for S. pyogenes)^56. […]

[2] = tested on: Pseudomonas aeruginosa: ATCC 10148
Experimental: as §1, §2, §3, §4, §5

[3] = tested on: Staphylococcus aureus: ATCC 6538P
Experimental: as §1, §2, §3, §4, §5

[4] = tested on: Streptococcus pyogenes: unknown strain, hospital isolate; settings: for MBC / MIC: unknown strain, hospital isolate; for inhibitory or bacteriostatic activity: S. pyogenes
Experimental: as §1, §2, §3, §4, §5

[5] = tested on: Mycobacterium smegmatis (MC^2155); settings: Mycobacterium (MC^2155)
Experimental: as §1, §2, §3, §4, §5

Row | Compound | MBC ([1]; ATCC 9723) [µg/mL] | MIC ([1]; ATCC 9723) | MBC ([2]; ATCC 10148) [µg/mL] | MIC ([2]; ATCC 10148) [µg/mL] | MBC ([3]; ATCC 6538) [µg/mL] | MIC ([3]; ATCC 6538) | MBC [4] [µg/mL] | MIC [4] [µg/mL] | MIC [5] [µg/mL] | MBC [5] [µg/mL] | MIC ([1]; E. coli, listed as H4) [µg/mL] | inhibitory or bacteriostatic activity ([2]; P. aeruginosa) | MIC ([3]; S. aureus, listed as H4) [µg/mL] | inhibitory or bacteriostatic activity [4] | MBC ([2]; P. aeruginosa) [µg/mL] | MIC ([2]; P. aeruginosa) [µg/mL] | inhibitory or bacteriostatic activity ([1]; E. coli) | inhibitory or bacteriostatic activity ([3]; S. aureus)
1 | CC[C@H](C)[C@H](NC(=O)[C@H](C)NC(=O)[C@@H]1CCCN1C(=O)[C@@H](N)Cc1ccccc1)C(=O)N[C@H](C(=O)N[C@@H](CS)C(=O)N[C@@H](CCCCN)C(=O)N[C@H](C(=O)N[C@@H](CO)C(=O)N[C@@H](CCCCN)C(=O)N[C@@H](CC(N)=O)C(=O)N[C@@H](CS)C(=O)O)C(C)C)[C@@H](C)CC [Peptide P8_CCH, FPAIICKVSKNC] (H-FPAIICKVSKNC-OH; N-terminus and C-terminus assumed) | >256 | >256 µg/mL | >256 | >256 | >256 | >256 µg/mL | >256 | >256 | 128 (≈ 96.8 µM) | – | – | – | – | – | – | – | – | –
2 | LRCPTPHYNFENGIGNHLMWNIIWLNAQQMSYKNK [Peptide P15_CCH] | >256 | >256 µg/mL | >256 | >256 | >256 | >256 µg/mL | >256 | >256 | >256 | >256 | – | – | – | – | – | – | – | –
3 | CC[C@H](C)[C@H](NC(=O)[C@H](CCCCN)NC(=O)[C@H](CS)NC(=O)[C@H](C)NC(=O)[C@@H](NC(=O)[C@H](Cc1ccccc1)NC(=O)CNC(=O)[C@H](CC(C)C)NC(=O)CNC(=O)[C@@H](NC(=O)[C@H](CCCCN)NC(=O)CNC(=O)[C@H](CC(C)C)NC(=O)[C@H](CC(N)=O)NC(=O)[C@H](CCCCN)NC(=O)[C@H](CC(C)C)NC(=O)[C@@H](NC(=O)[C@H](CO)NC(=O)[C@H](CC(C)C)NC(=O)[C@H](CCSC)NC(=O)[C@@H](N)CO)C(C)C)C(C)C)C(C)C)C(=O)N[C@@H](CC(N)=O)C(=O)N[C@@H](CCCCN)C(=O)N[C@@H](CCC(N)=O)C(=O)N[C@@H](CS)C(=O)O [HP4] (H-SMLSVLKNLGKVGLGFVACKINKQC-OH; N-terminus and C-terminus assumed) | – | 48 µM | >256 | >256 | – | 97 µM | >256 | >256 | – | – | 128 | no effect | 256 | no effect | – | – | – | –
4 | CC[C@H](C)[C@H](N)C(=O)N[C@@H](CCC(N)=O)C(=O)N[C@@H](CCCNC(=N)N)C(=O)N[C@@H](CC(C)C)C(=O)N1CCC[C@H]1C(=O)N[C@H](C(=O)N[C@H](C(=O)N[C@H](C(=O)N[C@H](C(=O)N[C@@H](CC(C)C)C(=O)N1CCC[C@H]1C(=O)N[C@@H](CO)C(=O)N[C@@H](CC(C)C)C(=O)N[C@@H](Cc1ccc(O)cc1)C(=O)N[C@@H](CS)C(=O)N[C@H](C(=O)N[C@H](C(=O)N[C@@H](CS)C(=O)N[C@@H](CCCNC(=N)N)C(=O)N[C@H](C(=O)N[C@@H](CS)C(=O)O)[C@@H](C)O)[C@@H](C)CC)C(C)C)[C@@H](C)CC)C(C)C)[C@@H](C)CC)C(C)C [Peptide P14_CCH] (H-IQRLPVIVILPSLYCVICRTC-OH; N-terminus and C-terminus assumed) | >256 | >256 µg/mL | >256 | >256 | >256 | >256 µg/mL | >256 | >256 | >256 | >256 | – | – | – | – | – | – | – | –
5 | IAGQVAAAKQKHI [Peptide P12_CCH, IAGQVAAAKQKHI] | >256 | >256 µg/mL | >256 | >256 | >256 | >256 µg/mL | >256 | >256 | >256 | >256 | – | – | – | – | – | – | – | –
6 | CC[C@H](C)[C@H](NC(=O)[C@H](CCCCN)NC(=O)[C@H](CCC(=O)O)NC(=O)[C@H](CCCCN)NC(=O)[C@H](CO)NC(=O)[C@H](CCCCN)NC(=O)[C@H](CCCNC(=N)N)NC(=O)[C@H](Cc1ccccc1)NC(=O)[C@H](Cc1ccccc1)NC(=O)[C@H](CC(=O)O)NC(=O)CNC(=O)[C@H](CC(C)C)NC(=O)[C@@H](N)CC(C)C)C(=O)NCC(=O)N[C@@H](CCCCN)C(=O)N[C@@H](CCC(=O)O)C(=O)N[C@@H](Cc1ccccc1)C(=O)N[C@@H](CCCCN)C(=O)N[C@@H](CCCNC(=N)N)C(=O)N[C@H](C(=O)N[C@H](C(=O)N[C@@H](CCC(N)=O)C(=O)N[C@@H](CCCNC(=N)N)C(=O)N[C@H](C(=O)N[C@@H](CCCCN)C(=O)N[C@@H](CC(=O)O)C(=O)N[C@@H](Cc1ccccc1)C(=O)N[C@@H](CC(C)C)C(=O)N[C@@H](CCCNC(=N)N)C(=O)N[C@@H](CC(N)=O)C(=O)N[C@@H](CC(C)C)C(=O)N[C@H](C(=O)N1CCC[C@H]1C(=O)N[C@@H](CCCNC(=N)N)C(=O)N[C@H](C(=O)N[C@@H](CCC(=O)O)C(=O)N[C@@H](CO)C(=O)O)[C@@H](C)O)C(C)C)[C@@H](C)CC)C(C)C)[C@@H](C)CC [LL37 + ve_AcOH, reference compound] | – | – | – | – | – | – | – | – | – | – | – | – | – | – | >256 | >256 | – | –
7 | CC[C@H](C)[C@H](NC(=O)[C@H](Cc1ccccc1)NC(=O)[C@@H]1CCCN1C(=O)[C@H](CC(C)C)NC(=O)[C@@H](N)Cc1ccccc1)C(=O)N[C@@H](C)C(=O)N[C@@H](CCCNC(=N)N)C(=O)N[C@@H](CC(C)C)C(=O)N[C@@H](C)C(=O)N[C@@H](C)C(=O)N[C@@H](CCCCN)C(=O)N[C@H](C(=O)N[C@@H](Cc1ccccc1)C(=O)N1CCC[C@H]1C(=O)N[C@@H](CO)C(=O)N[C@H](C(=O)N[C@H](C(=O)N[C@H]1CSSC[C@@H](C(=O)O)NC(=O)[C@H](CCCCN)NC(=O)[C@H](CCCCN)NC(=O)[C@H]([C@@H](C)O)NC(=O)[C@H](C(C)C)NC(=O)[C@H](CO)NC1=O)[C@@H](C)CC)[C@@H](C)CC)C(C)C [Peptide R4] (H-FLPFIARLAAKVFPSIICSVTKKC-OH; disulfide 18-24; N-terminus and C-terminus assumed) | 16 (≈ 6.03 µM) | 16 µg/mL | >256 | >256 | 4 (≈ 1.51 µM) | 4 µg/mL | – | – | 4 (≈ 1.51 µM) | 4 (≈ 1.51 µM) | – | – | – | – | – | – | – | –
8 | CC(C)C[C@H](NC(=O)[C@H](CS)NC(=O)[C@@H]1CCCN1C(=O)[C@H](CCCCN)NC(=O)[C@H](CCCNC(=N)N)NC(=O)[C@@H]1CCCN1C(=O)[C@H](Cc1ccccc1)NC(=O)[C@H](CO)NC(=O)[C@H](CCCCN)NC(=O)[C@@H](NC(=O)[C@H](Cc1c[nH]c2ccccc12)NC(=O)[C@H](CS)NC(=O)CNC(=O)[C@H](CO)NC(=O)[C@H](CC(C)C)NC(=O)[C@@H](N)CO)[C@@H](C)O)C(=O)N[C@@H](CCCNC(=N)N)C(=O)N[C@@H](CC(N)=O)C(=O)N[C@@H](CCCNC(=N)N)C(=O)O [HP3, SLSGCWTKSFPRKPCLRNR] (H-SLSGCWTKSFPRKPCLRNR-OH; N-terminus and C-terminus assumed) | >256 | >256 µg/mL | >256 | >256 | >256 | >256 µg/mL | >256 | >256 | – | – | – | no effect | – | no effect | – | – | no effect | no effect
